Results from ChEMBL document CHEMBL5214963, “Development of a penetratin-conjugated stapled peptide that inhibits Wnt/β-catenin signaling” (Bioorg Med Chem, 2022).
The source made the active and inactive calls. No cut-off for these calls is given here. *1 amine or outer side, *2 acyl side, *3 side chain or, on linkers, in order; H or OH if unused. Where a SMILES comes first, the peptide text is derived from it. Bridges are numbered along the chain shown (N, C = ends). [ ]: non-standard residue; d: D form. Nle(6-ylidene) = O=C([C@H](CCCC=[*:3])N[*:1])[*:2]; Nle = CCCC[C@H](N)C(=O)O; βAla = NCCC(=O)O

Experiments:
[1] = test system: HEK293; test: (§1) Inhibition of Wnt/beta-catenin transactivation signalling in Wnt3a stimulated human HEK293 cells harbouring TCF/LEF luciferase reporter gene assessed as inhibition TCF-beta-catenin complex formation by measuring luminescence level at 50 uM preincubated for 15 hrs followed by recombinant mouse Wnt-3a addition and measured after 5 hrs by luminescence based microplate reader analysis; type: cell-based; conditions: time 20.0 hrs
[2] = Stability of the compound in proteinase K (unknown origin) assessed as remaining parent compound at 100 uM measured after 480 mins by HPLC analysis; type: ADME; conditions: read-out: Stability
[3] = test system: A549; test: Cytotoxicity against human A549 cells assessed as cell growth inhibition at 20 uM incubated for 24 hrs by CellTiter-Glo reagent based microplate reader analysis; type: functional
[4] = test system: DLD-1; test: Cytotoxicity against human DLD-1 cells assessed as reduction in cell growth at 20 uM incubated for 24 hrs by CellTiter-Glo reagent based microplate reader analysis; type: functional
[5] = test system: A549; test: Cytotoxicity against human A549 cells assessed as cell growth inhibition at 20 uM incubated for 5 days by CellTiter-Glo reagent based microplate reader analysis; type: functional; conditions: time 5.0 day
[6] = test system: DLD-1; test: Cytotoxicity against human DLD-1 cells assessed as cell growth inhibition at 20 uM incubated for 5 days by CellTiter-Glo reagent based microplate reader analysis; type: functional; conditions: time 5.0 day
[7] = test system: HEK293; test: as §1, with “20” for “50”; type: cell-based; conditions: time 20.0 hrs
[8] = test system: HEK293; test: as §1, with “0.1 to 20” for “50”; type: cell-based; conditions: dose 0.1-20 µM, time 20.0 hrs, DDE = dose-dependent effect

With `O=C(Nc1cccc2cccnc12)c1ccc(N2C(=O)[C@@H]3[C@H](C2=O)[C@@H]2C=C[C@H]3C2)cc1` as the compound, how does the inhibition [1] read?
The inhibition was “Active”.

For `CCCC[C@H](NC(=O)[C@@H]1CCC/C=C\CCC[C@H](NC(=O)[C@H](C)NC(=O)[C@H](C)NC(=O)CCN)C(=O)N[C@@H](CC(C)C)C(=O)N[C@@H](CC(=O)O)C(=O)N[C@@H](Cc2ccc(O)cc2)C(=O)N1)C(=O)N[C@@H](CS)C(=O)N[C@@H](CC(N)=O)C(=O)N[C@@H](Cc1ccc(O)cc1)C(=O)O` (H-[βAla]AA[Nle(6-ylidene)]LDY[Nle(6-ylidene)][Nle]CNY-OH; staple (Z) 4-8), which remaining at 8 h, 100 µM [2] is on record?
The remaining at 8 h, 100 µM was 65%.

Which results are given for `CCCC[C@H](NC(=O)[C@@H]1CCC/C=C\CCC[C@H](NC(=O)[C@H](C)NC(=O)[C@H](C)NC(=O)CCNC(=O)[C@H](CCCNC(=N)N)NC(=O)[C@H](CCCNC(=N)N)NC(=O)[C@H](CCCNC(=N)N)NC(=O)[C@H](CCCNC(=N)N)NC(=O)[C@H](CCCNC(=N)N)NC(=O)[C@H](CCCNC(=N)N)NC(=O)[C@H](CCCNC(=N)N)NC(=O)[C@@H](N)CCCNC(=N)N)C(=O)N[C@@H](CC(C)C)C(=O)N[C@@H](CC(=O)O)C(=O)N[C@@H](Cc2ccc(O)cc2)C(=O)N1)C(=O)N[C@@H](CS)C(=O)N[C@@H](CC(N)=O)C(=O)N[C@@H](Cc1ccc(O)cc1)C(=O)O`?
Activity [3]: Active; Activity [4]: Active

Which Activity [5] does the source give for `CC[C@H](C)[C@@H]1NC(=O)[C@@H](NC(=O)[C@H](CCCNC(=N)N)NC(=O)[C@@H]2CCCN2C(=O)[C@H](Cc2c[nH]c3ccccc23)NC(=O)[C@H](CCCNC(=N)N)NC(=O)[C@H](CCCNC(=N)N)NC(C)=O)CCC/C=C\CCC[C@@H](C(=O)N[C@@H](Cc2cnc[nH]2)C(=O)N[C@H](C(=O)N[C@@H](CCCNC(=N)N)C(=O)N[C@@H](CCCNC(=N)N)C(=O)N[C@H](C(=O)N[C@@H](Cc2c[nH]c3ccccc23)C(=O)N[C@@H](CCCNC(=N)N)C(=O)O)C(C)C)C(C)C)NC(=O)[C@H](CC(=O)O)NC(=O)[C@H](CC(C)C)NC1=O` (Ac-RRWPR[Nle(6-ylidene)]ILD[Nle(6-ylidene)]HVRRVWR-OH; staple (Z) 6-10) here?
Its Activity is “Active”.

What about the Activity [6] of the same compound?
Its Activity is “Active”.

And the inhibition [7]?
The inhibition was “Active”.

For `CC(C)C[C@H](NC(=O)[C@H](C)NC(=O)[C@H](C)NC(=O)CCN)C(=O)N[C@@H](CC(C)C)C(=O)N[C@@H](CC(=O)O)C(=O)N[C@@H](Cc1ccc(O)cc1)C(=O)N[C@H](C(=O)N[C@@H](CS)C(=O)N[C@@H](CC(N)=O)C(=O)N[C@@H](Cc1ccc(O)cc1)C(=O)O)[C@@H](C)O` (H-[βAla]AALLDYTCNY-OH), which remaining at 8 h, 100 µM [2] is on record?
Its remaining at 8 h, 100 µM is 0.1%.

Which results are given for `CCCC[C@H](NC(=O)[C@@H]1CCC/C=C\CCC[C@H](NC[C@H](C)NC(=O)[C@H](C)NC(=O)CCNC(=O)[C@H](CCC(N)=O)NC(=O)[C@@H]2CCCN2C(=O)[C@@H]2CCCN2C(=O)[C@H](CCCNC(=N)N)NC(=O)[C@H](CCCNC(=N)N)NC(=O)[C@H](CCCNC(=N)N)NC(=O)[C@H](CCC(N)=O)NC(=O)[C@H](CCCNC(=N)N)NC(=O)[C@H](CCCNC(=N)N)NC(=O)[C@H](CCCCN)NC(=O)[C@H](CCCCN)NC(=O)[C@H](CCCNC(=N)N)NC(=O)CN)C(=O)N[C@@H](CC(C)C)C(=O)N[C@@H](CC(=O)O)C(=O)N[C@@H](Cc2ccc(O)cc2)C(=O)N1)C(=O)N[C@@H](CS)C(=O)N[C@@H](CC(N)=O)C(=O)N[C@@H](Cc1ccc(O)cc1)C(=O)O`?
Activity [3]: Active; Activity [4]: Active

With `CCCC[C@H](NC(=O)[C@@H]1CCC/C=C\CCC[C@H](NC(=O)[C@H](C)NC(=O)[C@H](C)NC(=O)CCNC(=O)[C@H](CCCCN)NC(=O)[C@H](CCCCN)NC(=O)[C@H](Cc2c[nH]c3ccccc23)NC(=O)[C@H](CCCCN)NC(=O)[C@H](CCSC)NC(=O)[C@H](CCCNC(=N)N)NC(=O)[C@H](CCCNC(=N)N)NC(=O)[C@H](CC(N)=O)NC(=O)[C@H](CCC(N)=O)NC(=O)[C@H](Cc2ccccc2)NC(=O)[C@H](Cc2c[nH]c3ccccc23)NC(=O)[C@@H](NC(=O)[C@H](CCCCN)NC(=O)[C@@H](NC(=O)[C@H](CCC(N)=O)NC(=O)[C@@H](N)CCCNC(=N)N)[C@@H](C)CC)[C@@H](C)CC)C(=O)N[C@@H](CC(C)C)C(=O)N[C@@H](CC(=O)O)C(=O)N[C@@H](Cc2ccc(O)cc2)C(=O)N1)C(=O)N[C@@H](CS)C(=O)N[C@@H](CC(N)=O)C(=O)N[C@@H](Cc1ccc(O)cc1)C(=O)O` as the compound, how does the Activity [5] read?
Its Activity is “Active”.

And the Activity [3]?
The Activity was “Active”.

What about the Activity [6] of the same compound?
The Activity was “Active”.

And the inhibition [8]?
Its inhibition is “Dde”.

And the Activity [4]?
Its Activity is “Active”.
